Earlier results as cited in patent US8293868B2 (priority 2004, dated 2012).

System: α-subunit of the P. americana high conductance calcium-activated potassium channel (pSlo)

## charybdotoxin
  block of pSlo channels previously reported: about 80%
